Laboratory results from publication PMC10353061 (ACS Pharmacology & Translational Science, 2023).

Tests used:
SW620 cells = assay: Inhibition of SW620 cells; type: cell-based; conditions: Homo sapiens, SW-620, in the combination 9 at constant 0.25 μM
[1] = test system: Wnt/β-catenin signaling pathway; assay: Topflash/Fopflash luciferase report assay in SW480 cells; type: cell-based; conditions: 30 μM
Description: We synthesized derivatives 5–10 bearing 5-membered and 6-membered heterocyclic rings at the position 3′ or 4′ of the B phenyl ring. […] SW480 cells show higher Wnt activation compared to HCT116 cells.[28] […] In SW480 cells, compounds 5–10 were in the 1.75%(10)–7.32%(7) range of residual luciferase activity, except 6(28.46%), compared to 3(21.61%); in HCT116 cells, compounds 5–10 were in the 0.37%(7)–5.88%(5) range, compared to 3 (18.75%) (Table 1 and Figure 5).
Figure 5 Residual luciferase activity (%) by compounds 5–10 and reference compound 3 in SW480 cells (left panel) and HCT116 cells (right panel). Data are represented as the mean ± SD of three independent experiments, each performed in triplicate.
Briefly, the Topflash plasmid (Beyotime, Zhejiang, China) contains 7 TCF/LEF binding sites, while the Fopflash plasmid (Beyotime, Zhejiang, China) contains 6 mutated TCF/LEF binding sites, which are located in the upstream of the luciferase reporter. SW480 and HCT116 cell lines were cultured in 90% DMEM (HyClone, #SH30243.01) plus 10% fetal bovine serum (Gibco, #10270) and plasmocin (mpp-39-03, InvivoGen), respectively. The Topflash/Fopflash vector and plasmid pTK-renilla together were co-transfected to the cells. […] The Dual-Glo luciferase assay kit (Promega, #E1910) was used to measure the luminescence intensity (Figure 2).

HCT116 xenograft = assay: In vivo HCT116 xenograft tumor growth inhibition; parameters: species or system BALB/C^nu/nu mice
Procedure: Ten-week-old female BALB/C^nu/nu mice were inoculated subcutaneously with HCT116 cells (1 × 10^8 cells/mL) at the logarithmic growth phase. Compound 9 (100 μL, 25 mg/kg) was administered through an intraperitoneal injection every 2 days after tumorigenesis. Mice were euthanized on day 30, and tumors on the backs were collected for the measurement of tumor volume and weight.
Figure 12 Compound 9 inhibited the in vivo tumorigenicity of human colorectal cancer line HCT116. (A) Tumor tissues. (B) Top panel. The volume of tumors originating. *p < 0.05 vs. the control group; t-test; n = 4. (B) Bottom panel. The weight of tumors originating. *p < 0.05 vs. the control group; t-test; n = 4. […] Magnification 200×.
Nuclear protein Ki67 is a proliferation marker of tumor cell proliferation and is an indicator in cancer diagnosis through a biopsy.[38] CD31 is a marker of angiogenesis, along with the vascular endothelial growth factor (VEGF).[39] CD31 has been found in the angiogenetic early breast cancer tissues and is highly expressed on the surface of endothelial cells.[40]
Briefly, all 10-week-old female BALB/C^nu/nu mice (8 mice) were purchased from the Shanghai University of Traditional Chinese Medicine with Institutional Animal Care and Use Committee approval in accordance with institutional guidelines. All mice were randomly divided into […]. In the #1 group (4 mice), 1 × 10^8 cells/mL from HCT116 at the logarithmic growth phase were harvested and inoculated subcutaneously into BALB/C^nu/nu mice and intraperitoneally injected with 100 μL of compound 9 (25 mg/kg) every 2 days after tumorigenesis. In the #2 group (4 mice), 1 × 10^8 cells/mL from […] at the logarithmic growth phase were harvested and inoculated subcutaneously into BALB/C^nu/nu mice and intraperitoneally injected 100 μL of saline every 2 days after tumorigenesis. After continuous feeding for 30 days, the mice were sacrificed, and the tumors were removed. The tumors were weighed, and the volumes were calculated using the following formula: tumor volume (cm^3) = (ab^2)/2 (a: the longest axis (cm), b: the shortest axis (cm))
Briefly, fresh tissues were immersed in 4% paraformaldehyde (Sigma-Aldrich) for fixation at room temperature for 30 min. The tissues were then dehydrated in an ethanol gradient, embedded in paraffin, sectioned (thickness: 6 μm), and immersed in xylene for dewaxing. Tissue sections were blocked with an immunohistochemical blocking solution (Beyotime Biotechnology Co., Ltd., Zhejiang, China) at 37 °C for 30 min. The blocking solution was then discarded, and the sections were washed 3 times at room temperature for 5 min each with an immunohistochemical washing solution (Beyotime Biotechnology). […]

MDA-MB-231 cells = assay: Cell proliferation by live-cell imaging (IncuCyte), MDA-MB-231 TNBC cells; type: cell-based; conditions: 40 μM, 48 and 72 h
Description: TNBC represents approximately 10–15% of all breast cancers and is the most aggressive subtype of breast cancer. Patients with TNBC have a poor outcome compared to the other subtypes of breast cancer. In the breast cancer tissue, β-catenin is overexpressed compared to the normal tissue. The overexpression of β-catenin is associated with TNBC and lymph node metastasis. […] There is a quest for the development of new therapies to treat TNBC. […] Effects on cell proliferation of MDA-MB-231 TNBC cells were evaluated by live-time cell imaging using the Incucyte S5 system.
Figure 10 Inhibition of MDA-MB-231, HCC1806, and HCC1937 TNBC cell growth by compounds 5–10 and reference compounds 3, […], and iCRT3 at 40 μM. Cell growth inhibition was quantified using the IncuCyte cell-by-cell analysis software, by comparison with the growth of DMSO-treated cells at 72 h, set at 100% (mean ± SD, n = 3, one-way ANOVA, **p ≤ 0.01, ****p ≤ 0.0001).
Cell proliferation of breast cancer cell lines upon continuous treatment with select compounds was evaluated by the real-time quantitative live-cell imaging system. MDA-MB-231 (1500 cells/well), HCC1806 (2000 cells/well), and HCC1937 (3000 cells/well) were seeded in 96-well plates, treated with increasing doses of selected compounds and images (5 images/well) were acquired every 8 h for 3 days at 10× magnification in an IncuCyte SX5 live-content imaging system (Essen Bioscience) at 37 °C with 5% CO2. Images were analyzed using IncuCyte cell-by-cell analysis software to detect and quantify live cells (phase-contrast). The number of cells at each time point was quantified using IncuCyte cell-by-cell analysis software, and cell growth was evaluated as the normalized ratio between counted cells at each time point normalized to those counted at time 0. Graph drawing and statistical analyses were performed in GraphPad Prism according to the statistical tests described in the figure legends.

[2] = 25 mg/kg i.p. every 2 days, day 30
[3] = immunofluorescence staining, 25 mg/kg i.p.

## O=S(=O)(Nc1ccc(-c2ccccn2)cc1)c1ccc(Br)cc1 [Compound 9, 4-Bromo-N-(4-(pyridin-2-yl)phenyl)benzenesulfonamide]
SW620 cells
  EC50: 37 µM
[1]
  % Luciferase Activity SW480 (residual): 8.75%
HCT116 xenograft; [2]
  tumor volume vs control group (saline): significantly smaller
  tumor weight vs control group (saline): significantly smaller
HCT116 xenograft; [3]
  expression of angiogenesis marker CD31 in tumor tissues: significantly lower expression
  expression of proliferation factor Ki67 in tumor tissues: significantly lower expression
MDA-MB-231 cells
  effect on MDA-MB-231 cell proliferation: less effective
